Assay results reported in patent publication US20230212533A1 (THE REGENTS OF THE UNIVERSITY OF MICHIGAN, priority 2020, published 2023).
Several values for one entry are separate records, joined by “and”; a condition that tells them apart may be missing. Equal values may be shown once. Read-outs that look alike come from different tables or passages of the source.

Assays:
[1] = system: L-6-hydroxynicotine oxidase (LHNO, 3NG7), wild type, SEQ ID NO:13; conditions: cited from earlier work; for kcat/Km: wild-type LHNO
[2] = biological target: T1, Pseudomonas putida S16 nicotine oxidoreductase NicA2, wild type, SEQ ID NO:131 (Pseudomonas putida, UniProt F8G0P2)
Target sequence in this assay (F8G0P2 2-482): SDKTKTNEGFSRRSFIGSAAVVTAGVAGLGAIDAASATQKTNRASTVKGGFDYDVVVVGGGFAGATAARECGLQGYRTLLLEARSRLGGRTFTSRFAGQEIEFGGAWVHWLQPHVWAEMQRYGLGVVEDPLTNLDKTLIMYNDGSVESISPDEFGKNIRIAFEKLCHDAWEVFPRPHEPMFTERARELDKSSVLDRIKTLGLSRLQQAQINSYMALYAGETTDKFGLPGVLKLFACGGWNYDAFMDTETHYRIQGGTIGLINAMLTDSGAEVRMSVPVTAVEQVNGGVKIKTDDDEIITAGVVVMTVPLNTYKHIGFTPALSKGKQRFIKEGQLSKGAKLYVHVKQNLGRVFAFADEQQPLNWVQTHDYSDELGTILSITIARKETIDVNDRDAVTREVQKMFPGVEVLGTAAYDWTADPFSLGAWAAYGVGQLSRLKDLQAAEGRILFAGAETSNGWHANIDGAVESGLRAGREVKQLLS
Description: All stopped-flow experiments were performed in 40 mM HEPES-KOH, pH 7.5, 100 mM NaCl, 10% glycerol at 4° C. NicA2 and CycN solutions were made anaerobic in glass tonometers by repeated cycles with vacuum and anaerobic argon^42. When needed, NicA2's FAD was reduced in the anaerobic tonometer by titrating with a dithionite solution housed in a gas-tight Hamilton syringe. The dithionite solution was slowly added up to the point where NicA2's flavin reached the fully-reduced hydroquinone state, and the redox status of the flavin was spectrophotometrically monitored during the titration using a Shimadzu UV-1900 UV-VIS spectrophotometer. […] Buffer containing O2 at specific concentrations was prepared by sparging different O2/N2 gas ratios through buffer in a gas-tight syringe for at least 15 minutes at room temperature. The various O2/N2 gas ratios were prepared from O2 and N2 gas cylinders using a Maxtec MaxBlend 2 gas mixer, and the dissolved O2 concentration in the buffer solution was calculated using a Henry's law constant for O2 of 770 atm M^−1.
Stopped-flow experiments were conducted using a TgK Scientific SF-61 DX2 KinetAsyst stopped-flow instrument that had been previously equilibrated with a glucose/glucose oxidase solution to make the internal components of the system anaerobic. […] The reaction of NicA2-Flred with O2 was monitored using the instrument's multi-wavelength CCD detector (1.6 ms data interval time). […] Kinetic traces were fit to sums of exponentials using KaleidaGraph (Synergy Software) to determine observed rate constants.
We next monitored the reaction of NicA2-Flred with O2 in the oxidative half reaction via stopped-flow experiments.

[3] = biological target: T1, Pseudomonas putida S16 nicotine oxidoreductase NicA2, wild type, SEQ ID NO:131; conditions: estimated from reported doubling time of one hour
Target sequence in this assay (F8G0P2 39-482): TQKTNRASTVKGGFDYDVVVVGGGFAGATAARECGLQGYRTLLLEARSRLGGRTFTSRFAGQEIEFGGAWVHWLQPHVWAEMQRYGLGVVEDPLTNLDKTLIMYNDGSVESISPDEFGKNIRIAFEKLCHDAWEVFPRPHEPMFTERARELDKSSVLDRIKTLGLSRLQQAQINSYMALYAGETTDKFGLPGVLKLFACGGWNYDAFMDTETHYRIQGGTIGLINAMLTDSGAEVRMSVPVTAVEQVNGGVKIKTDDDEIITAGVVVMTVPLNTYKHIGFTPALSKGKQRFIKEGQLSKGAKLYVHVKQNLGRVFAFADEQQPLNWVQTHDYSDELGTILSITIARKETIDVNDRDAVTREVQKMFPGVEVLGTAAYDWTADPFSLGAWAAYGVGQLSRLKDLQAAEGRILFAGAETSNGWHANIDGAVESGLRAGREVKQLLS

[4] = system: Pseudomonas putida S16 nicotine oxidoreductase NicA2, wild type, SEQ ID NO:131; conditions: in vitro, cited from earlier work
[5] = biological target: T1, Pseudomonas putida S16 nicotine oxidoreductase NicA2, wild type, SEQ ID NO:131; conditions: WT P. putida S16; about 5 mM nicotine degraded by about 3.5 nM NicA2 in 16 hours
Target sequence in this assay (F8G0P2 39-482): as above
Description: Both wild-type and ΔcycN strains were grown overnight in LB. The next day, these cultures were diluted to OD 0.1 in 5 mL M9 salts+0.4% glycerol and allowed to grow for 2 hours. […] From then on, the cultures were sampled at 2, 4, 8, 24, and 49 hours. 200 μL of culture was extracted at each time point and spun down at 16,000 g for 10 minutes. The supernatant was isolated, and 100 μL supernatant was mixed with 300 μL methanol to prepare HPLC samples. The cell pellet was resuspended in 100 μL Bacterial Protein Extraction Reagent (B-PER; Thermo Fisher) and allowed to incubate at room temperature for 15 minutes to complete lysis. After this time had elapsed, 25 μL of 5× reducing gel loading buffer was added to each sample.
Samples for HPLC were further clarified by spinning at 16,000 g for 30 minutes. 100 μL of each clarified sample was placed into autosampler vials. […] Samples and standards were within the linear range of detection, and the absorbance peaks were integrated for quantification.
Samples for western blot analysis were boiled for 5 minutes. […] Protein bands were quantified using LI-COR Odyssey software, and the NicA2 standard curve was used to determine the linear range of detection and concentration of NicA2 at each time point from the experiment.

Escherichia coli = experiment: toxicity to E. coli; type: cell-based
Description: (§1) Directed evolution is a powerful means to improve enzyme function. […] The experiments are performed using the fast-growing model organism, Escherichia coli, which permits evaluation of many variants of NicA2 for performance-enhancing mutations. […] Identification of these variants is expected to reveal the molecular determinants of wild-type NicA2's low O2-dependent activity.
as §1, with “were” for “are”, “permitted” for “permits”

[6] = biological target: T1, Pseudomonas putida S16 nicotine oxidoreductase NicA2, wild type, SEQ ID NO:131; conditions: anaerobic, pH 7.5, 4° C., 450 nm
Target sequence in this assay (F8G0P2 2-482): as the sequence (F8G0P2 2-482) above
Description: All stopped-flow experiments were performed in 40 mM HEPES-KOH, pH 7.5, 100 mM NaCl, 10% glycerol at 4° C. NicA2 and CycN solutions were made anaerobic in glass tonometers by repeated cycles with vacuum and anaerobic argon^42. When needed, NicA2's FAD was reduced in the anaerobic tonometer by titrating with a dithionite solution housed in a gas-tight Hamilton syringe. The dithionite solution was slowly added up to the point where NicA2's flavin reached the fully-reduced hydroquinone state, and the redox status of the flavin was spectrophotometrically monitored during the titration using a Shimadzu UV-1900 UV-VIS spectrophotometer. […] The various O2/N2 gas ratios were prepared from O2 and N2 gas cylinders using a Maxtec MaxBlend 2 gas mixer, and the dissolved O2 concentration in the buffer solution was calculated using a Henry's law constant for O2 of 770 atm M^−1.
Stopped-flow experiments were conducted using a TgK Scientific SF-61 DX2 KinetAsyst stopped-flow instrument that had been previously equilibrated with a glucose/glucose oxidase solution to make the internal components of the system anaerobic. […] The reaction of NicA2-Flred with O2 was monitored using the instrument's multi-wavelength CCD detector (1.6 ms data interval time). […]

[7] = cited from earlier work

SMILES: CN1CCC[C@H]1c1cccnc1 [L-nicotine]
- kcat/Km [1]: 42 M⁻¹ s⁻¹

SMILES: CN1CCC[C@H]1c1ccc(O)nc1 [L-6-hydroxynicotine]
- kcat ([1]; O2 as the electron acceptor for flavin oxidation, substrate L-6-hydroxynicotine): 78 s⁻¹
- kcat/Km [1]: 600000 M⁻¹ s⁻¹

SMILES: O=O [O2, molecular oxygen]
- kobs of NicA2-Flred oxidation by O2 ([2]; at ~250 μM O2, calculated from bimolecular rate constant): 0.007 s⁻¹
- bimolecular rate constant for flavin oxidation by O2 (kox^O2) ([2]; pH 7.5, 4° C., 450 nm): 27 ± 1 M⁻¹ s⁻¹ and 27 M⁻¹ s⁻¹
- kcat ([1]; reaction with oxygen): 78 s⁻¹

SMILES: CN1CCC[C@H]1c1cccnc1 [nicotine]
- in vivo turnover rate (kcat) [3]: 1 s⁻¹
- turnover number (O2-dependent nicotine turnover) ([4]; O2 as electron acceptor): 0.007 s⁻¹
- kcat (conversion of nicotine to pseudooxynicotine) ([4]; oxygen as electron acceptor): 0.007 s⁻¹
- in vivo turnover rate [5]: about 24 s^−1
- concentration toxic to E. coli (Escherichia coli; about this level or higher): about 1 mg/mL
- kcat for degrading nicotine relative to NicA2 ([1]; oxygen dependent reaction): 5 fold
- kobs (fastest phase, reduction of NicA2's FAD by nicotine) [6]: about 180 s^−1

SMILES: CNCCCC(=O)c1cccnc1 [pseudooxynicotine]
- addictiveness in animal models [7]: non-addictive
- toxicity in animal models [7]: non-toxic
- concentration up to which non-toxic to E. coli (Escherichia coli; e. coli culture): at least 5 mg/mL
